# Reference: patent US20210324092A1, “MONOCLONAL ANTIBODY COMPOSITION FOR TREATMENT OF PHILADELPHIA CHROMOSOME POSITIVE ACUTE LYMPHOBLASTIC LEUKEMIA” (priority 2018, published 2021)
# B1: IL7: interleukin 7, a cytokine which is important for B and T cell development (protein, UniProt P13232 26-177, looked up)
# Interleukin-7: DCDIEGKDGKQYESVLMVSIDQLLDSMKEIGSNCLNNEFNFFKRHICDANKEGMFLFRAARKLRQFLKMNSTGDFDLHLLKVSEGTTILLNCTGQVKGRKPAALGEAQPTKSLEENKSLKEQKKLNDLCFLKRLLQEIKTCWNKILMGTKEH
# Test system: BCR-ABL+ pre-B cells
# Assay: Rescue of BCR-ABL+ pre-B cells from imatinib-induced cell death; cell cycle analysis (FIGS. 6 and 7)
# Assay type: cell-based, mice
# Settings: for effect on BCR-ABL inhibitor (imatinib)-induced cell death: Imatinib 1 μM, IL7 2.5 ng/ml, CXCL12 100 ng/ml, AMD3100 10 μM
Molecule,effect on BCR-ABL inhibitor (imatinib)-induced cell death,cell cycling under imatinib treatment (imatinib in the presence of IL7)
"c1cc(CN2CCCNCCNCCCNCC2)ccc1CN1CCCNCCNCCCNCC1 [AMD3100, reference compound]",did not affect imatinib treatment,
TSLP: the ligand for CRLF2,did not affect imatinib treatment,
B1,counteracted the BCR-ABL inhibitor-induced cell death,restored cell cycling
